According to US8802663B2, “Pyrazole oxadiazole derivatives as S1P1 agonists” (Merck Serono SA, priority 2009, dated 2014):
Counter-ions that a name gives are not always drawn.

Each molecule was assayed against S1P1 (Homo sapiens (Human), UniProt P21453) (assay: 35S-GTPγS binding, membranes from CHO cells expressing S1P1). Settings: CHO cell membranes.
Assay type: biochemical
Experimental: Cells were suspended in 50 mM TRIS, pH 7.4, 2 mM EDTA, 250 mM Sucrose (buffer A) and 1× Complete protease inhibitor cocktail (Roche), and disrupted at 4° C. by N2 decompression using a cell disruption bomb (Parr Instrument). Following centrifugation at 1000 RPM for 10 min at 4° C., the supernatant was suspended in buffer A and centrifuged again at 19000 RPM for 60 min at 4° C. The pellet was then suspended in 10 mM HEPES, pH 7.4, 1 mM EDTA, 250 mM Sucrose (Buffer B), and 1× Complete EDTA-free protease inhibitor cocktail and homogenized using a potter. Membranes were flash frozen in liquid N2 and stored at −80° C. [33P]sphingosine 1-phosphate (3000 Ci/mmol; American Radiolabeled Chemicals, Inc.) was added to test compounds in DMSO. […] Specific binding was calculated by subtracting remaining radioactivity in the presence of 1000-fold excess of unlabeled SIP. Binding data were analyzed using the GraphPad Prism program.
After 60 min incubation at 30° C. on a shaker, plates were centrifuged for 10 min at 2000 RPM. […] Triplicate samples were averaged and expressed as % response relative to S1P activation in absence of compound (n=2).

Sequence of S1P1 (P21453 whole entry, species assumed): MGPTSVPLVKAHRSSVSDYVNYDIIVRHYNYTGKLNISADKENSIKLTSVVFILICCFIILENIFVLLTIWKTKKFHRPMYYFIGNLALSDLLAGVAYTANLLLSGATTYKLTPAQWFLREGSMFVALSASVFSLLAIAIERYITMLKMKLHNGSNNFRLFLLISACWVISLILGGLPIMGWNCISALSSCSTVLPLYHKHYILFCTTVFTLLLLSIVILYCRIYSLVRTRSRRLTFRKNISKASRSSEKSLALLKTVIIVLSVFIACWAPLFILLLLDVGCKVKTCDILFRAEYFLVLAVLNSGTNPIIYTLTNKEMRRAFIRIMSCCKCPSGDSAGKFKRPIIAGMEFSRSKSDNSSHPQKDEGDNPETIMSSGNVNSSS

Compared with `CC(C)n1ncc(-c2nc(-c3cc(F)ccc3F)no2)c1-c1ccccc1` [Example 10, 3-(2,5-difluorophenyl)-5-(1-isopropyl-5-phenyl-1H-pyrazol-4-yl)-1,2,4-oxadiazole], `CC(C)Cn1cc(-c2nc(-c3cc(F)ccc3F)no2)c(-c2ccccc2)n1` [Example 7, 3-(2,5-difluorophenyl)-5-(1-isobutyl-3-phenyl-1H-pyrazol-4-yl)-1,2,4-oxadiazole] is 1.7-fold higher in EC50: 172 nM for the first, 288 nM for the second. The first is the more potent here.

First: COCc1c(-c2nc(-c3ccc(CN4CC(O)C4)cc3)no2)cnn1C1CCCCC1 [Example 73, 1-(4-{5-[1-cyclohexyl-5-(methoxymethyl)-1H-pyrazol-4-yl]-1,2,4-oxadiazol-3-yl}benzyl)azetidin-3-ol]
Second: COCc1c(-c2nc(-c3ccc(CN4CC(C(=O)O)C4)cc3)no2)cnn1C1CCCCC1 [Example 68, 1-(4-{5-[1-cyclohexyl-5-(methoxymethyl)-1H-pyrazol-4-yl]-1,2,4-oxadiazol-3-yl}benzyl)azetidine-3-carboxylic acid]
The EC50 of the first is 100-fold higher: 30 nM for the first, 0.3 nM for the second.

First: Cc1ccccc1-c1c(-c2nc(-c3cc(F)ccc3F)no2)cnn1C1CCCCC1 [Example 48, 5-[1-cyclohexyl-5-(2-methylphenyl)-1H-pyrazol-4-yl]-3-(2,5-difluorophenyl)-1,2,4-oxadiazole]
Second: Fc1ccc(F)c(-c2noc(-c3cnn(C4CCCC4)c3-c3ccncc3)n2)c1 [Example 30, 4-{1-cyclopentyl-4-[3-(2,5-difluorophenyl)-1,2,4-oxadiazol-5-yl]-1H-pyrazol-5-yl}Pyridine]
The EC50 of the first is 2.4-fold higher: 47 nM for the first, 20 nM for the second. The second is the more potent here.

Compared with `Cc1c(-c2nc(-c3cc(F)ccc3F)no2)cnn1-c1ccccc1F` [Example 60, 3-(2,5-difluorophenyl)-5-[1-(2-fluorophenyl)-5-methyl-1H-pyrazol-4-yl]-1,2,4-oxadiazole], `Cc1c(-c2nc(-c3cc(F)ccc3F)no2)cnn1-c1ccccc1` [Example 15, 3-(2,5-difluorophenyl)-5-(5-methyl-1-phenyl-1H-pyrazol-4-yl)-1,2,4-oxadiazole] is 1.7-fold lower in EC50: 320 nM for the first, 192 nM for the second.

Compared with `CS(=O)(=O)c1cccc(-c2nc(-c3cnn(C4CCCCC4)c3-c3ccccc3)no2)c1` [Example 58, 3-(1-cyclohexyl-5-phenyl-1H-pyrazol-4-yl)-5-[3-(methylsulfonyl)phenyl]-1,2,4-oxadiazole], `CS(=O)(=O)c1cccc(-c2noc(-c3cnn(C4CCCCC4)c3-c3ccncc3)n2)c1` [Example 26, 4-(1-cyclohexyl-4-{3-[3-(methylsulfonyl)phenyl]-1,2,4-oxadiazol-5-yl}-1H-pyrazol-5-yl)pyridine] is 5.4-fold lower in EC50: 157 nM for the first, 29 nM for the second. The second is the more potent here.

First: CC(C)(C)Cn1ncc(-c2nc(-c3cccc(C(F)(F)F)c3)no2)c1-c1ccncc1 [Example 90, 5-(1-neopentyl-5-(pyridin-4-yl)-1H-pyrazol-4-yl)-3-(3-(trifluoromethyl)phenyl)-1,2,4-oxadiazole]
Second: Fc1ccc(F)c(-c2noc(-c3cnn(CC(F)(F)F)c3-c3ccncc3)n2)c1 [Example 24, 3-(2,5-difluorophenyl)-5-(5-(pyridin-4-yl)-1-(2,2,2-trifluoroethyl)-1H-pyrazol-4-yl)-1,2,4-oxadiazole]
The EC50 of the first is 8.3-fold lower: 35 nM for the first, 292 nM for the second.

Going from `Fc1ccccc1-c1nc(-c2cnn(C3CCCCC3)c2-c2ccccc2)no1` [Example 52, 3-(1-cyclohexyl-5-phenyl-1H-pyrazol-4-yl)-5-(2-fluorophenyl)-1,2,4-oxadiazole] to `OCCNCc1ccc(-c2noc(-c3cnn(C4CCCCC4)c3-c3ccncc3)n2)cc1` [Example 56, 2-({4-[5-(1-cyclohexyl-5-pyridin-4-yl-1H-pyrazol-4-yl)-1,2,4-oxadiazol-3-yl]benzyl}amino)ethanol], the EC50 falls from 313 nM to 11 nM (28-fold). The second is the more potent here.

Compared with `CNCc1ccc(-c2noc(-c3cnn(CCc4ccccc4)c3-c3ccncc3)n2)cc1` [Example 106, N-methyl-1-(4-(5-(1-phenethyl-5-(pyridin-4-yl)-1H-pyrazol-4-yl)-1,2,4-oxadiazol-3-yl)phenyl)methanamine], `O=C(O)C1CN(Cc2ccc(-c3noc(-c4cnn(CCc5ccccc5)c4-c4ccncc4)n3)cc2)C1` [Example 110, 1-(4-(5-(1-phenethyl-5-(pyridin-4-yl)-1H-pyrazol-4-yl)-1,2,4-oxadiazol-3-yl)benzyl)azetidine-3-carboxylic acid, formate] is 11-fold lower in EC50: 458 nM for the first, 40 nM for the second. The second is the more potent here.

Compared with `COCc1c(-c2nc(-c3ccc(Cn4cncn4)cc3)no2)cnn1C1CCCCC1` [Example 107, 3-(4-((1H-1,2,4-triazol-1-yl)methyl)phenyl)-5-(1-cyclohexyl-5-(methoxymethyl)-1H-pyrazol-4-yl)-1,2,4-oxadiazole], `COCc1c(-c2nc(-c3ccc(CCO)cc3)no2)cnn1C1CCCCC1` [Example 109, 2-(4-(5-(1-cyclohexyl-5-(methoxymethyl)-1H-pyrazol-4-yl)-1,2,4-oxadiazol-3-yl)phenyl)ethanol] is 6.9-fold higher in EC50: 45 nM for the first, 312 nM for the second.

First: OCc1ccc(-c2noc(-c3cnn(CC4CC4)c3-c3ccncc3)n2)cc1 [Example 94, (4-(5-(1-(cyclopropylmethyl)-5-(pyridin-4-yl)-1H-pyrazol-4-yl)-1,2,4-oxadiazol-3-yl)phenyl)methanol]
Second: CC(C)Cn1ncc(-c2nc(-c3ccc(CN4CC(O)C4)cc3)no2)c1-c1ccncc1 [Example 82, 1-(4-(5-(1-isobutyl-5-(pyridin-4-yl)-1H-pyrazol-4-yl)-1,2,4-oxadiazol-3-yl)benzyl)azetidin-3-ol, formate]
The EC50 of the first is 2.5-fold higher: 387 nM for the first, 156 nM for the second. The second is the more potent here.

First: COCc1c(-c2nc(-c3ccc(CO)cc3)no2)cnn1CC(C)C [Example 69, (4-{5-[1-isobutyl-5-(methoxymethyl)-1H-pyrazol-4-yl]-1,2,4-oxadiazol-3-yl}phenyl)methanol]
Second: CNCc1ccc(-c2noc(-c3cnn(CC(C)C)c3-c3ccncc3)n2)cc1 [Example 85, 1-(4-(5-(1-isobutyl-5-(pyridin-4-yl)-1H-pyrazol-4-yl)-1,2,4-oxadiazol-3-yl)phenyl)-N-methylmethanamine]
The EC50 of the first is 2.4-fold higher: 437 nM for the first, 179 nM for the second. The second is the more potent here.

`COCc1c(-c2nc(-c3ccc4c(c3)CCNC4)no2)cnn1C1CCCCC1` [Example 116, 5-(1-cyclohexyl-5-(methoxymethyl)-1H-pyrazol-4-yl)-3-(1,2,3,4-tetrahydroisoquinolin-6-yl)-1,2,4-oxadiazole] and `COCc1c(-c2nc(-c3ccc(CN(C)CC(=O)O)cc3)no2)cnn1C1CCCCC1` [Example 72, N-(4-{5-[1-cyclohexyl-5-(methoxymethyl)-1H-pyrazol-4-yl]-1,2,4-oxadiazol-3-yl}benzyl)-N-methylglycine] are within 1.5-fold of each other in EC50: 86 nM for the first, 119 nM for the second.

First: CC(C)Cn1ncc(-c2nc(-c3cccc(C(F)(F)F)c3)no2)c1C1CCOCC1 [Example 50, 5-[1-isobutyl-5-(tetrahydro-2H-pyran-4-yl)-1H-pyrazol-4-yl]-3-[3-(trifluoromethyl)phenyl]-1,2,4-oxadiazole]
Second: FC(F)(F)c1cccc(-c2noc(-c3cnn(C4CCCCC4)c3C3CCOCC3)n2)c1 [Example 87, 5-(1-cyclohexyl-5-(tetrahydro-2H-pyran-4-yl)-1H-pyrazol-4-yl)-3-(3-(trifluoromethyl)phenyl)-1,2,4-oxadiazole]
The EC50 of the first is 1.7-fold lower: 211 nM for the first, 361 nM for the second.

First: CCOc1c(-c2nc(-c3cc(F)ccc3F)no2)cnn1-c1ccccc1C [Example 112, 3-(2,5-difluorophenyl)-5-(5-ethoxy-1-o-tolyl-1H-pyrazol-4-yl)-1,2,4-oxadiazole]
Second: CCOC(=O)Cn1ncc(-c2nc(-c3cc(F)ccc3F)no2)c1-c1ccncc1 [Example 20, ethyl {4-[3-(2,5-difluorophenyl)-1,2,4-oxadiazol-5-yl]-5-pyridin-4-yl-1H-pyrazol-1-yl}acetate]
The EC50 of the first is 1.8-fold lower: 94 nM for the first, 172 nM for the second. The first is the more potent here.

`CC(C)Cn1ncc(-c2nc(-c3ccc(CN(C)C)cc3)no2)c1-c1ccncc1` [Example 81, 1-(4-(5-(1-isobutyl-5-(pyridin-4-yl)-1H-pyrazol-4-yl)-1,2,4-oxadiazol-3-yl)phenyl)-N,N-dimethylmethanamine, formate] and `CC(C)Cn1ncc(-c2nc(-c3ccc(CN4CCC(O)C4)cc3)no2)c1-c1ccncc1` (centres unmarked) [Example 80, 1-(4-(5-(1-isobutyl-5-(pyridin-4-yl)-1H-pyrazol-4-yl)-1,2,4-oxadiazol-3-yl)benzyl)pyrrolidin-3-ol, formate] are within 1.5-fold of each other in EC50: 195 nM for the first, 252 nM for the second.

Going from `COCc1c(-c2nc(-c3ccc(CNCCC(=O)O)cc3)no2)cnn1C1CCCCC1` [Example 67, N-(4-{5-[1-cyclohexyl-5-(methoxymethyl)-1H-pyrazol-4-yl]-1,2,4-oxadiazol-3-yl}benzyl)-beta-alanine] to `CNCc1ccc(-c2noc(-c3cnn(C4CCCCC4)c3C3CCOCC3)n2)cc1` [Example 88, 1-(4-(5-(1-cyclohexyl-5-(tetrahydro-2H-pyran-4-yl)-1H-pyrazol-4-yl)-1,2,4-oxadiazol-3-yl)phenyl)-N-methylmethanamine], the EC50 rises from 1.4 nM to 47 nM (34-fold).

Compared with `OC1CN(Cc2ccc(-c3noc(-c4cnn(C5CCCCC5)c4-c4ccncc4)n3)cc2)C1` [Example 62, 1-{4-[5-(1-cyclohexyl-5-pyridin-4-yl-1H-pyrazol-4-yl)-1,2,4-oxadiazol-3-yl]benzyl}azetidin-3-ol], `O=C(O)C1CCN(Cc2ccc(-c3noc(-c4cnn(C5CCCCC5)c4-c4ccncc4)n3)cc2)CC1` [Example 71, 1-{4-[5-(1-cyclohexyl-5-pyridin-4-yl-1H-pyrazol-4-yl)-1,2,4-oxadiazol-3-yl]benzyl}piperidine-4-carboxylic acid] is 2-fold higher in EC50: 3 nM for the first, 6 nM for the second.

Molecule `CCCc1c(-c2nc(-c3cccc(S(C)(=O)=O)c3)no2)cnn1-c1ccccc1` [Example 22] has an EC50 of 370 nM.
